# From PubChem BioAssay AID179 (DTP/NCI, 2004)
# Active and inactive are the calls of the source.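 How the source made its calls: active means compounds giving half or more protection of infected cells from virus-caused growth loss, again on retest; inactive means the rest.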 Where a SMILES comes first, the peptide text is derived from it. The star is where a group is joined. OSu = O=C1CCC(=O)N1O*
# System: CEM cells HIV-1 protection, formazan growth assay
# Assay: NCI AIDS Antiviral Assay
# Conditions: for IC50: measured here: growth of uninfected CEM cells
# Method in brief: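 Soluble formazan readout of cell growth; CEM cells ± HIV-1; 5 drug concs. ≥50% protection → retest; ≥50% again = moderately active; reproducible 100% = confirmed active.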
Structure (SMILES),EC50 [µM],IC50 [µM],outcome
COc1ccc(O)c2c(=O)c3cc(O)ccc3oc12,> 200,30.2,
NCCCCC(NC(=O)C(N)Cc1ccc(O)cc1)C(=O)NC(CCCCN)C(=O)NC(CCCCN)C(=O)ON1C(=O)CCC1=O (stereo not drawn) (H-YKKK-OSu; configuration not given here),162,> 200,
C[C@@H]1O[C@@H](O[C@H]2CC[C@]3(C=O)[C@H]4CC[C@]5(C)[C@@H](c6ccc(=O)oc6)CC[C@]5(O)[C@@H]4CC[C@]3(O)C2)[C@H](O)[C@H](O)[C@H]1O[C@@H]1O[C@H](CO)[C@@H](O)[C@H](O)[C@H]1O,> 0.2,0.0038,
Cn1c(=O)oc2cc(Br)ccc21,> 200,> 200,
O=C1NN=C2CCCCCCC12 (stereo not drawn),> 302,> 302,
COC(=O)Cc1c(C2C(CC(=O)OC)c3ccccc3N2C2OC(CO)C(O)C(O)C2O)[nH]c2ccccc12 (stereo not drawn),112,151,
COC(=O)C12c3[nH]c4ccccc4c3CCN1CC(=O)C2C(=O)OCc1ccccc1 (stereo not drawn),> 91.2,57.5,
CC1(C)C2CC(O)C1CCC2=O (stereo not drawn),> 200,> 200,
O=C1C(CN2CCCCC2)CCC1CN1CCCCC1 (stereo not drawn),> 200,8.13,
N#Cc1cnc2nc1NCCCCCCC2,> 204,132,
Nc1ccn(C2CSC(CO)O2)c(=O)n1 (stereo not drawn),0.145,10,
CC(C)(C)OC(=O)N/N=C(/N)Cc1ccccc1,> 200,> 200,
Cc1ccc2nc(C=Nc3ccccc3Cl)cc(C)c2c1,> 200,10.5,
Cn1[nH]c(=O)ccc1=O,> 2000,1780,
CCCCCC=C(c1ccc(OC)c(S(=O)(=O)N(C)C)c1)c1ccc(OC)c(S(=O)(=O)N(C)C)c1,> 35.5,> 35.5,
O=c1/c(=C/c2ccccc2O)sc2nc3ccccc3n12,> 17.8,> 17.8,
C[n+]1c2ccccc2c(CNCC(=O)O)c2ccccc21,,,inactive
Cc1nc2ccccc2c(=O)n1-c1ccccc1,> 1050,631,
C1=NCCNCCN=Cc2ccccc2OCc2cccc(n2)COc2ccccc21,> 200,10.7,
COC(=O)c1cc(C(=CCC[C@H]2CC[C@@]3(C)[C@@H](CC[C@H]4[C@@H]3CC[C@]3(C)[C@@H](C(C)CCCC(C)C)CC[C@@H]43)C2)c2cc(F)c(OC)c(C(=O)OC)c2)cc(F)c1OC (stereo partly drawn),> 200,> 200,
[Co+2].[O-]c1ccccc1C=NCc1ccccc1.[O-]c1ccccc1C=NCc1ccccc1,> 19.5,> 19.5,

Structure (SMILES),EC50 [µM],IC50 [µM],outcome
O=C1CN(Cc2ccc(Cl)cc2)CC(=O)N2Cc3ccccc3CN12,> 191,148,
COc1ccc(C(=O)C(c2ccc(OC)cc2)C2(O)C(=O)Nc3c(C)cc(Cl)cc32)cc1 (stereo not drawn),> 79.4,> 79.4,
CCOC(=O)c1c(C)c2c(n1C)CCc1cn[nH]c1-2,> 191,126,
CCN(CC)CC(=O)N1CCc2c([nH]c3ccccc23)C1c1cccnc1 (stereo not drawn),> 138,> 138,
COc1cccc(N2C(Cl)C(=O)C2c2c[nH]c3ccccc23)c1 (stereo not drawn),> 79.4,> 79.4,
COc1ccc(C2N(c3ccc(F)cc3)C(=O)N3C(c4ccc(OC)cc4)N(c4ccc(F)cc4)C(=O)N23)cc1 (stereo not drawn),> 200,> 200,
Cc1cc2c(c3c1c1ccccc1n3C)C(=O)C=CC2=O,> 36.3,3.72,
CCOC(=O)c1c(N2CCOCC2)[nH]c(=O)c(C(c2ccc(N(C)C)cc2)c2c(O)c(C(=O)OCC)c(N3CCOCC3)[nH]c2=O)c1O,> 200,> 200,
Cn1c2c(sc1=O)CCC2,> 200,> 200,
C=CCn1c(N)c(C#N)c(C#N)c1CCC,> 200,> 200,
CCN(CC)Cc1nc(C2CCC([N+](=O)[O-])O2)no1 (stereo not drawn),> 200,72.4,
O=C1c2[nH]c3ccc(Br)cc3c2CCN1Cc1ccc(Cl)cc1,> 200,11.2,
CC1SC2=NC3=C(c4ccccc4C3=O)C(c3ccc(Br)cc3)N2C1=O (stereo not drawn),> 32.4,> 32.4,
SCc1ccc(CS)s1,> 741,> 741,
O=C(Nc1ccc(O)cc1C(=O)O)c1ccc(O)cc1,> 229,> 229,
O=c1c(NO)c([N+](=O)[O-])cnn1-c1ccccc1,> 89.1,0.316,
O=C(Cc1ccccc1)NNc1nc(NNC(=O)c2ccncc2)nc(Nc2ccc(Cl)cc2)n1,> 100,> 100,
CCOC(=O)C(=Cn1c(=S)[nH]c2cc(C)ccc21)C(=O)OCC,> 200,> 200,
Cc1c2ccc(Cl)cc2nc2ccc(OCCNC(=O)[C@H](CCCN=C(N)N)NC(=O)OC(C)(C)C)cc12,> 200,89.1,
O=c1oc(-c2ccccc2)c(-c2ccccc2)c(-c2ccccc2)c1-c1ccccc1,> 46.8,29.5,
COC(=O)CC1c2ccccc2N2C(=O)Cc3c([nH]c4ccccc34)C12 (stereo not drawn),> 200,191,
